CC(C)c1[nH]n(-c2c(Cl)cc(Cl)cc2Cl)c2nc(Cc3ccc(NC(=O)OCCCN(C)C)cc3)nc(=O)c1-2 [Example 1, 1-(2,4,6-trichlorophenyl)-3-isopropyl-6-(4-(3-(N,N-dimethylamino)prop-1-yloxycarbonylamino)benzyl)pyrazolo[3,4-d]pyrimidin-4-one]
melting point: 200 to 202 °C

Source: patent US20040248905A1, “6-Substituted pyrazolo [3,4-d] pyrimidin-4-ones useful as cyclin dependent kinase inhibitors” (priority 2001, published 2004)
